Experimental data from patent publication EP4772500A1, “NOVEL ISOXAZOLE COMPOUND AS TM4SF5-SPECIFIC INHIBITOR AND USE THEREOF” (Seoul National University R&DB Foundation, priority 2023, dated 2025).

Key:
TM4SF5 = target: T1, TM4SF5 (Homo sapiens, UniProt O14894); experiment: Streptavidin pulldown and Western blotting: binding between TM4SF5 and cell membrane receptors/signaling factors; assay type: cell-based; design: expressed in transfected cells; host or cells: SNU449 human hepatocellular carcinoma cells, stably transfected; conditions: 24 hours
T1 sequence (O14894 1-197): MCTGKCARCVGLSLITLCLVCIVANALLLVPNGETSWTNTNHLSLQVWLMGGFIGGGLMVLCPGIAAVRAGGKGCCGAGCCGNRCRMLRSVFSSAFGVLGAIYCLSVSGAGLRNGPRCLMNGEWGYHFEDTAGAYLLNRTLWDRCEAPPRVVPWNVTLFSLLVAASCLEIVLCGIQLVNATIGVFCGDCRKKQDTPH
Procedure: Cells were cultured to ~60% density in a cell incubator at 37°C and 5% CO2, and then transfected using PEI and cultured in a cell incubator at 37°C for two days. After cultivation, cell extracts were obtained by the method described above. After precipitating a desired protein from the cell extracts using an immunoprecipitation method, the binding proteins were identified by the Western blot technique described above. Specifically, cells cultured in a 100 mm cell culture dish for two days were washed twice with PBS, and protease inhibitor cocktails (GenDepot, USA) were added to 500 µl of immunoprecipitation lysis buffer (0.5% Triton X-100 or Brij 58, 40 mM HEPES, 150 mM NaCl, 1 mM EDTA, pH 7.4), followed by treatment at 4°C for 15 minutes. […] Proteins therein were quantified using a BCA reagent (Thermo Scientifics, USA). An electrophoresis sample was prepared by adding 4x laemmli sample buffer to a portion of the quantified sample and boiling at 100°C for 5 minutes. For immunoprecipitation, Streptavidin Agarose Resin (Thermo Fisher Scientific) or anti-HA antibody-coated Sepharose beads were added in proportion to the quantified protein amount, followed by rotation at 4°C for 4 hours, and then centrifugation was performed at 7,000x g at 4°C for 5 minutes and the supernatant was discarded. […]

Human Jurkat T cells = experiment: T cell activation (Granzyme B, PD-1) after PMA/INO; assay type: cell-based; conditions: for activation by PMA/INO (Granzyme B production): PMA (10 ng/ml) and INO (1 µg/ml), 24 hours (FIG. 18a)
Procedure: (a) Human Jurkat T cells were activated by treating with PMA (10 ng/ml) and INO (1 µg/ml) for 24 hours. A non-treated state was also included as a control. […] (b) Human Jurkat T cells were either not treated or treated with PMA (25 ng/ml) and INO (1 µg/ml) for 24 hours, and IL-21 was treated at a level of 50 ng/ml for the last 6 hours. Simultaneously with the PMA/INO treatment, ST-5-002 was treated or not treated at 2.5 µM. At this time, the expression levels of Granzyme B and PD-1, or the phosphorylation of Ser473 of AKTs and Thr202/Tyr204 of ERKs, were enhanced by PMA/INO.

`COc1ccc(-c2cc(-c3ccc(N)cc3)no2)cc1` [ST-1-025, 4-(5-(4-methoxyphenyl)isoxazole-3-yl)aniline] was tested, and the “binding of TM4SF5 to EGFR, CD44, and GLUT4” value (TM4SF5; 3 µM, SNU449 (FIG. 4)) was “slightly inhibited”.

For `CC(=O)Nc1ccc(-c2cc(-c3ccc(O)cc3)no2)cc1` [ST-5-001, N-(4-(3-(4-hydroxyphenyl)isoxazole-5-yl)phenyl)acetamide], the “activation by PMA/INO (Granzyme B production)” value (Human Jurkat T cells) was “further increased”.

For `COc1ccc(-c2cc(-c3ccc(NC(C)=O)cc3)no2)cc1` [ST-2-001, N-(4-(5-(4-methoxyphenyl)isoxazole-3-yl)phenyl)acetamide], the “binding between TM4SF5 and EGFR, integrin α5, CD133, CD44, mTOR, IL-6R α, GLUT1, and GLUT4” value (TM4SF5; 5 µM, SNU449 (FIG. 6)) was “inhibited”.

In the case of `Cc1ccc(C(=O)Nc2ccc(-c3cc(-c4ccc(O)cc4)no3)cc2)cc1` [ST-5-002, N-(4-(3-(4-hydroxyphenyl)isoxazole-5-yl)phenyl)-4-methylbenzamide], the “activation by PMA/INO (Granzyme B production)” value (Human Jurkat T cells) is reported as “further increased”, the “expression of Granzyme B and PD-1” value (Human Jurkat T cells; PMA (25 ng/ml) and INO (1 µg/ml), 2.5 µM alone (FIG. 18b)) is reported as “further increased” and the “level of Granzyme B” value (Human Jurkat T cells; PMA/INO, 2.5 µM together with IL-21 50 ng/ml (FIG. 18b)) is reported as “even higher”.
